# Test results reported in patent US11324720B2, “Antiproliferative DNA polymerase inhibitor” (NEW YORK MEDICAL COLLEGE, priority 2018, dated 2022).
# How the values were obtained:
# [1] = tested on: HCC1395 cells; assay: MTT assay with PARP inhibitors with or without zelpolib; format: cell-based, human; conditions: for sensitivity of HCC1395 cells to the PARP inhibitor alone: HR-proficient triple-negative breast cancer cell line
# Procedure: However, there have been minimal clinical benefits for HR-proficient cancers^37-41. Since zelpolib can inhibit HR, we explored the effect of zelpolib in combination with PARP inhibitors on HR-proficient cancer cells. The hypothesis is that zelpolib will lead to an HR-defect through inhibition of Pol δ and render HR-proficient cells sensitive to PARP inhibition. […] The cells were treated with increasing concentrations of PARP inhibitor Niraparib (FIG. 5B) or Rucaparib (FIG. 5C) in the absence or presence of 2.5 μM zelpolib for 48 hrs. The number of cells were then analyzed by MTT assay.
# (§1) Human cancer cells (5×10^3-7.5×10^3) were initially seeded in 96-well plates (Cellstar) containing 0.2 ml media per well. After 24 hrs, these cells were treated with variable concentrations drug combinations for 48-72 hrs. Subsequently, 4,5-dimethylthiazol-2-yl-2,5-diphenyltetrazolium bromide (MTT) (20 μl of 5 mg/ml) was added to each well for 3 hrs. Formazan crystals were then dissolved in 150 μl DMSO and optical density was read at 490 nm^25. All experiments were performed in triplicates. Results were analyzed by GraphPad Prism. Data represent mean value±SEM for each concentration of inhibitor combinations.
# [2] = tested on: MCF7 cells; assay: Cell proliferation assay, MTT method; format: cell-based, human; conditions: 72 h
# Source text: DNA replication precedes cell division. Thus, cancer cells cannot divide and proliferate without successful chromosomal duplication. A DNA polymerase inhibitor should inhibit cancer cell proliferation. We characterized the antiproliferative properties of zelpolib on a number of cell lines originated from pancreatic cancer (BxPC-3) and breast cancer (MCF7 for ER+ breast cancer). In addition, we developed a cisplatin resistant subline of a pancreatic cancer cell line, R-BxPC3 for our studies as well. We used the MTT method^25 for analyzing cell proliferation. This assay is based on the reduction of 3-(4,5-dimethylthiazol-2-yl)-2,5-diphenyltetrazolium bromide by live cells to an insoluble formazon, which were subsequently dissolved in DMSO and quantified by UV absorbance. Therefore, the cell number is proportional to the optical density in the established linear region. […] The plateau phenomena indicate inhibition of proliferation without cell killing, similar to these observed from hydroxyurea^26, aphidicolin^27, and to a certain extent, methotrexate treatments^28. Direct inhibition of DNA polymerase activity provides a unique mechanism that is not employed by any of the current cancer therapeutics. We selected a number of most widely prescribed chemotherapeutics with distinct mechanisms to compare their antiproliferative potential in the 2 cancer cell lines. We included alkylating agent cisplatin, antimetabolites methotrexate and 5-flourouracil (5FU)^29-31. […] Whereas the comparison with cisplatin is biphasic.
# as §1
# [3] = tested on: BRCA1/2 mutant population; conditions: maintenance therapy; cited from earlier work
smiles,measurement,setting,value
CNCc1ccc(-c2[nH]c3cc(F)cc4c3c2CCNC4=O)cc1 [Rucaparib],sensitivity of HCC1395 cells to the PARP inhibitor alone,[1],insensitive
"N.N.[Cl][Pt][Cl] [cisplatin, reference compound]","antiproliferative activity, zelpolib versus cisplatin",[2],more effective beyond 5 μM
NC(=O)c1cccc2cn(-c3ccc([C@@H]4CCCNC4)cc3)nc12 [Niraparib],Niraparib concentration with 2.5 μM zelpolib that achieves the effect of 25 μM Niraparib alone,"[1]; HCC1395 proliferation, 48 hrs",5 µM
same,sensitivity of HCC1395 cells to the PARP inhibitor alone,[1],insensitive
O=C(c1cc(Cc2n[nH]c(=O)c3ccccc23)ccc1F)N1CCN(C(=O)C2CC2)CC1 [olaparib],hazard ratio in progression-free survival,[3],0.18
same,reduction in the risk of progression or death,[3],82%
